Experiments:
Format in all cases: in vivo
Abutilon theophrasti = test: Test Example 5: herbicidal effect by foliage application, plastic box (symbol M); settings: 320 g/ha, 3 weeks after application
Excerpt: (§1) Herbicidal Effect Test by Foliage Application
(§2) Sterilized diluvial soil was placed in a plastic box having a length of 21 cm, a width of 13 cm, and a depth of 7 cm. Each of the seeds of Digitaria ciliaris, Setaria viridis, Echinochloa crus-galli var. crus-galli, Avena fatua, Alopecurus myosuroides, Lolium multiflorum Lam., Apera spica-venti, Abutilon theophrasti, Amaranthus retroflexus, Chenopodium album, Stellaria media, Galium spurium, Veronica persica, corn, soybean, rice plant, wheat, beet, and rapeseed was sowed in a spot-like manner and was covered with the soil of a thickness of about 1.5 cm. Thereafter, the plants were grown in the greenhouse of 25° C. to 30° C. After the plants were grown for 14 days, the emulsion agent of the compound of the present invention prepared in accordance with Formulation Example 2 was diluted with water so as to be a predetermined herbicide amount and the diluted emulsion agent was uniformly applied to a foliage part with a small-size spray. 3 weeks later from the herbicide application, the effect to each plant was investigated in accordance with the criteria of Test Example 1.

Lolium multiflorum Lam. = test: Test Example 5: herbicidal effect by foliage application, plastic box (symbol K); settings: 320 g/ha, 3 weeks after application
Excerpt: as §1, §2

Veronica persica = test: Test Example 5: herbicidal effect by foliage application, plastic box (symbol R); settings: 320 g/ha, 3 weeks after application
Excerpt: as §1, §2

[1] = system: directly sowed rice plant; test: Test Example 3: effect on crop by foliage application, Wagner pot (symbol b); settings: application herbicide amount 320 g/ha
Method in brief: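 Wagner pot (1/10000 are), alluvial soil, submerged 0.1–0.5 cm; sown E. crus-galli var. crus-galli, L. chinensis, C. difformis, rice; greenhouse 25–30 °C.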

corn = test: Test Example 5: effect on crop by foliage application, plastic box (symbol c); settings: 320 g/ha, 3 weeks after application
Excerpt: as §1
(§3) Sterilized diluvial soil was placed in a plastic box having a length of 21 cm, a width of 13 cm, and a depth of 7 cm. Each of the seeds of Digitaria ciliaris, Setaria viridis, Echinochloa crus-galli var. crus-galli, Avena fatua, Alopecurus myosuroides, Lolium multiflorum Lam., Apera spica-venti, Abutilon theophrasti, Amaranthus retroflexus, Chenopodium album, Stellaria media, Galium spurium, Veronica persica, corn, soybean, rice plant, wheat, beet, and rapeseed was sowed in a spot-like manner and was covered with the soil of a thickness of about 1.5 cm. Thereafter, the plants were grown in the greenhouse of 25° C. to 30° C.

Alopecurus myosuroides = test: Test Example 5: herbicidal effect by foliage application, plastic box (symbol J); settings: 320 g/ha, 3 weeks after application
Excerpt: as §1, §2

Digitaria ciliaris = test: Test Example 5: herbicidal effect by foliage application, plastic box (symbol F); settings: 320 g/ha, 3 weeks after application
Excerpt: as §1, §2

soybean = test: Test Example 5: effect on crop by foliage application, plastic box (symbol d); settings: 320 g/ha, 3 weeks after application
Excerpt: as §1, §3

Avena fatua = test: Test Example 5: herbicidal effect by foliage application, plastic box (symbol I); settings: 320 g/ha, 3 weeks after application
Excerpt: as §1, §2

Galium spurium = test: Test Example 5: herbicidal effect by foliage application, plastic box (symbol Q); settings: 320 g/ha, 3 weeks after application
Excerpt: as §1, §2

beet = test: Test Example 5: effect on crop by foliage application, plastic box (symbol f); settings: 320 g/ha, 3 weeks after application
Excerpt: as §1, §3

Chenopodium album = test: Test Example 5: herbicidal effect by foliage application, plastic box (symbol O); settings: 320 g/ha, 3 weeks after application
Excerpt: as §1, §2

Stellaria media = test: Test Example 5: herbicidal effect by foliage application, plastic box (symbol P); settings: 320 g/ha, 3 weeks after application
Excerpt: as §1, §2

Leptochloa chinensis = test: Test Example 3: herbicidal effect by foliage application, Wagner pot (symbol D); settings: application herbicide amount 320 g/ha
Method in brief: (§4)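 Post-emergence, paddy-type test: seedlings 14 d old in shallow-flooded (0.1–0.5 cm) alluvial soil, 25–30 °C greenhouse. Emulsion diluted to target rate, sprayed on leaves. Read-out: visual effect on each species at 3 weeks, per set criteria.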

[2] = system: Echinochloa crus-galli var. crus-galli; test: Test Example 5: herbicidal effect by foliage application, plastic box (symbol H); settings: 320 g/ha, 3 weeks after application
Excerpt: as §1, §2

Setaria viridis = test: Test Example 5: herbicidal effect by foliage application, plastic box (symbol G); settings: 320 g/ha, 3 weeks after application
Excerpt: as §1, §2

Amaranthus retroflexus = test: Test Example 5: herbicidal effect by foliage application, plastic box (symbol N); settings: 320 g/ha, 3 weeks after application
Excerpt: as §1, §2

[3] = system: Echinochloa crus-galli var. crus-galli; test: Test Example 3: herbicidal effect by foliage application, Wagner pot (symbol H); settings: application herbicide amount 320 g/ha
Method in brief: as §4

rice plant = test: Test Example 5: effect on crop by foliage application, plastic box (symbol b); settings: 320 g/ha, 3 weeks after application
Excerpt: as §1, §3

Cyperus difformis = test: Test Example 3: herbicidal effect by foliage application, Wagner pot (symbol E); settings: application herbicide amount 320 g/ha
Method: as §1
After alluvial soil was placed into 1/10000 are of Wagner pot, water was poured and mixed to form a submerged condition having a water depth of 0.1 cm to 0.5 cm. Seeds of Echinochloa crus-galli var. crus-galli, Leptochloa chinensis, Cyperus difformis, and rice were sowed and the pot was placed in the greenhouse of 25° C. to 30° C. to grow the plants. After the plants were grown for 14 days, the emulsion agent of the compound of the present invention prepared in accordance with Formulation Example 2 was diluted with water so as to be a predetermined herbicide amount and the diluted emulsion agent was uniformly applied to a foliage part with a small-size spray. 3 weeks later from the herbicide application, the effect to each plant was investigated in accordance with the criteria of Test Example 1.

wheat = test: Test Example 5: effect on crop by foliage application, plastic box (symbol e); settings: 320 g/ha, 3 weeks after application
Excerpt: as §1, §3

Apera spica-venti = test: Test Example 5: herbicidal effect by foliage application, plastic box (symbol L); settings: 320 g/ha, 3 weeks after application
Excerpt: as §1, §2

rapeseed = test: Test Example 5: effect on crop by foliage application, plastic box (symbol g); settings: 320 g/ha, 3 weeks after application
Excerpt: as §1, §3

Compound	M: Abutilon theophrasti, herbicidal effect grade (Abutilon theophrasti)	K: Lolium multiflorum Lam., herbicidal effect grade (Lolium multiflorum Lam.)	R: Veronica persica, herbicidal effect grade (Veronica persica)	effect on crop b (directly sowed rice plant), grade 0-5 [1]	c: corn, effect on crop grade (corn)	J: Alopecurus myosuroides, herbicidal effect grade (Alopecurus myosuroides)	F: Digitaria ciliaris, herbicidal effect grade (Digitaria ciliaris)	d: soybean, effect on crop grade (soybean)	I: Avena fatua, herbicidal effect grade (Avena fatua)	Q: Galium spurium, herbicidal effect grade (Galium spurium)	f: beet, effect on crop grade (beet)	O: Chenopodium album, herbicidal effect grade (Chenopodium album)	P: Stellaria media, herbicidal effect grade (Stellaria media)	herbicidal effect on D (Leptochloa chinensis), grade 0-5 (Leptochloa chinensis)	H: Echinochloa crus-galli var. crus-galli, herbicidal effect grade [2]	G: Setaria viridis, herbicidal effect grade (Setaria viridis)	N: Amaranthus retroflexus, herbicidal effect grade (Amaranthus retroflexus)	herbicidal effect on H (Echinochloa crus-galli var. crus-galli), grade 0-5 [3]	b: directly sowed rice plant, effect on crop grade (rice plant)	herbicidal effect on E, grade 0-5 (Cyperus difformis)	also measured
CON=C(C)CC1CC(OC(=O)N(C(C)C)C(C)C)=C(c2c(C)cc(C)cc2C)C1=O (stereo not drawn) [1-158]	0 (Herbicidal ratio of 5% or lower (almost no effect))	4 (Herbicidal ratio of 70% or higher and lower than 90%)	0 (Herbicidal ratio of 5% or lower (almost no effect))	2 (Herbicidal ratio of 20% or higher and lower than 40%)	0 (Herbicidal ratio of 5% or lower (almost no effect))	1 (Herbicidal ratio of 5% or higher and lower than 20%)	0 (Herbicidal ratio of 5% or lower (almost no effect))	0 (Herbicidal ratio of 5% or lower (almost no effect))	3 (Herbicidal ratio of 40% or higher and lower than 70%)	0 (Herbicidal ratio of 5% or lower (almost no effect))	0 (Herbicidal ratio of 5% or lower (almost no effect))	0 (Herbicidal ratio of 5% or lower (almost no effect))	0 (Herbicidal ratio of 5% or lower (almost no effect))	2 (Herbicidal ratio of 20% or higher and lower than 40%)	1 (Herbicidal ratio of 5% or higher and lower than 20%)	0 (Herbicidal ratio of 5% or lower (almost no effect))	0 (Herbicidal ratio of 5% or lower (almost no effect))	0 (Herbicidal ratio of 5% or lower (almost no effect))	1 (Herbicidal ratio of 5% or higher and lower than 20%)	0 (Herbicidal ratio of 5% or lower (almost no effect))	e: wheat, effect on crop grade (wheat): 0 (Herbicidal ratio of 5% or lower (almost no effect)); L: Apera spica-venti, herbicidal effect grade (Apera spica-venti): 0 (Herbicidal ratio of 5% or lower (almost no effect)); g: rapeseed, effect on crop grade (rapeseed): 2 (Herbicidal ratio of 20% or higher and lower than 40%)
CCOC(=O)C(C(=O)C1CCCCC1)C1CC(O)=C(c2c(C)cc(C)cc2C)C1=O (stereo not drawn) [2-029]	0 (Herbicidal ratio of 5% or lower (almost no effect))	1 (Herbicidal ratio of 5% or higher and lower than 20%)	0 (Herbicidal ratio of 5% or lower (almost no effect))	4 (Herbicidal ratio of 70% or higher and lower than 90%)	0 (Herbicidal ratio of 5% or lower (almost no effect))	0 (Herbicidal ratio of 5% or lower (almost no effect))	0 (Herbicidal ratio of 5% or lower (almost no effect))	0 (Herbicidal ratio of 5% or lower (almost no effect))	2 (Herbicidal ratio of 20% or higher and lower than 40%)	0 (Herbicidal ratio of 5% or lower (almost no effect))	0 (Herbicidal ratio of 5% or lower (almost no effect))	0 (Herbicidal ratio of 5% or lower (almost no effect))	0 (Herbicidal ratio of 5% or lower (almost no effect))	0 (Herbicidal ratio of 5% or lower (almost no effect))	0 (Herbicidal ratio of 5% or lower (almost no effect))	0 (Herbicidal ratio of 5% or lower (almost no effect))	0 (Herbicidal ratio of 5% or lower (almost no effect))	0 (Herbicidal ratio of 5% or lower (almost no effect))	2 (Herbicidal ratio of 20% or higher and lower than 40%)	0 (Herbicidal ratio of 5% or lower (almost no effect))	e: wheat, effect on crop grade (wheat): 0 (Herbicidal ratio of 5% or lower (almost no effect)); L: Apera spica-venti, herbicidal effect grade (Apera spica-venti): 0 (Herbicidal ratio of 5% or lower (almost no effect)); g: rapeseed, effect on crop grade (rapeseed): 0 (Herbicidal ratio of 5% or lower (almost no effect))
CC(=O)CC1CC(O)=C(c2c(C)cc(-n3ccnc3)cc2C)C1=O (stereo not drawn) [7-025]				0 (Herbicidal ratio of 5% or lower (almost no effect))										3 (Herbicidal ratio of 40% or higher and lower than 70%)				1 (Herbicidal ratio of 5% or higher and lower than 20%)		0 (Herbicidal ratio of 5% or lower (almost no effect))	M: Abutilon theophrasti, herbicidal effect (criteria of Test Example 1) (Abutilon theophrasti): 0 (Herbicidal ratio of 5% or lower (almost no effect)); K: Lolium multiflorum Lam., herbicidal effect (criteria of Test Example 1) (Lolium multiflorum Lam.): 0 (Herbicidal ratio of 5% or lower (almost no effect)); R: Veronica persica, herbicidal effect (criteria of Test Example 1) (Veronica persica): 0 (Herbicidal ratio of 5% or lower (almost no effect)); c: corn, effect on crop (criteria of Test Example 1) (corn): 0 (Herbicidal ratio of 5% or lower (almost no effect)); J: Alopecurus myosuroides, herbicidal effect (criteria of Test Example 1) (Alopecurus myosuroides): 0 (Herbicidal ratio of 5% or lower (almost no effect)); F: Digitaria ciliaris, herbicidal effect (criteria of Test Example 1) (Digitaria ciliaris): 3 (Herbicidal ratio of 40% or higher and lower than 70%); d: soybean, effect on crop (criteria of Test Example 1) (soybean): 0 (Herbicidal ratio of 5% or lower (almost no effect)); I: Avena fatua, herbicidal effect (criteria of Test Example 1) (Avena fatua): 0 (Herbicidal ratio of 5% or lower (almost no effect)); Q: Galium spurium, herbicidal effect (criteria of Test Example 1) (Galium spurium): 0 (Herbicidal ratio of 5% or lower (almost no effect)); f: beet, effect on crop (criteria of Test Example 1) (beet): 0 (Herbicidal ratio of 5% or lower (almost no effect)); O: Chenopodium album, herbicidal effect (criteria of Test Example 1) (Chenopodium album): 0 (Herbicidal ratio of 5% or lower (almost no effect)); P: Stellaria media, herbicidal effect (criteria of Test Example 1) (Stellaria media): 0 (Herbicidal ratio of 5% or lower (almost no effect)); H: Echinochloa crus-galli var. crus-galli, herbicidal effect (criteria of Test Example 1) [2]: 0 (Herbicidal ratio of 5% or lower (almost no effect)); G: Setaria viridis, herbicidal effect (criteria of Test Example 1) (Setaria viridis): 0 (Herbicidal ratio of 5% or lower (almost no effect)); N: Amaranthus retroflexus, herbicidal effect (criteria of Test Example 1) (Amaranthus retroflexus): 0 (Herbicidal ratio of 5% or lower (almost no effect)); b: directly sowed rice plant, effect on crop (criteria of Test Example 1) (rice plant): 0 (Herbicidal ratio of 5% or lower (almost no effect)); e: wheat, effect on crop (criteria of Test Example 1) (wheat): 0 (Herbicidal ratio of 5% or lower (almost no effect)); L: Apera spica-venti, herbicidal effect (criteria of Test Example 1) (Apera spica-venti): 0 (Herbicidal ratio of 5% or lower (almost no effect)); g: rapeseed, effect on crop (criteria of Test Example 1) (rapeseed): 0 (Herbicidal ratio of 5% or lower (almost no effect))

Source: patent US11000033B2, “Ketone or oxime compound, and herbicide” (NISSAN CHEMICAL CORPORATION, priority 2014, dated 2021)
